Test results reported in patent publication US20080038809A1, “ISOLATED LECTIN POLYPEPTIDES CONSISTING OF TRUNCATED […] UDP-GalNAc:POLYPEPTIDE N- ACETYLGALACTOSAMINYLTRANSFERASES” (GLYCOZYM APS, priority 2002, published 2008).
Where two headings read alike, the source gives them in different places. Values belong to the compound of their own block, whether it stands above or below them.

Tests used:
[1] = system: T, Tn and sialyl-Tn in HT-29 MTX cells; assay: O-linked mucin carbohydrate structures T, Tn and sialyl-Tn in HT-29 MTX cells by immuno-histochemistry; assay type: cell-based, human; settings: 5 mM, compared to controls
From the text: In order to evaluate GalNAcβ-benzyl as an inhibitor of mucin glycosylation and secretion we used the cultured colon carcinoma cells of mucin secreting phenotypes: HT-29 metotrexate (MTX) cells selected from the HT-29 cell line by culture in the presence of MTX (kind gift from G. Huet, France). The HT-29 MTX cells were selected to yield a goblet cell like phenotype with constitutive production of MUC5AC. In order to ensure proper goblet cell differentiation the HT29MTX cell line were continuously grown up to 21 days in the presence of 5 mM GalNAcα-benzyl, 5 mM GalNAcβ-benzyl, 5 mM GlcNAcα-benzyl and without inhibitor using culture conditions as described in Hennebicq-Reig et al. (Permanent exposure of mucin-secreting HT-29 cells to benzyl-N-acetyl-alpha-D-galactosaminide induces abnormal O-glycosylation of mucins and inhibits constitutive and stimulated MUC5AC secretion. Biochem J. 1998; 334:283-95). […] Furthermore the viscosity of the media from cells with and without inhibitor was evaluated using viscosity micro-measurement.

[2] = system: core 1 α2-3sialyltransferase ST3Gal-I; settings: cited from earlier work
[3] = biological target: human GalNAc-T2 (UDP-GalNAc:polypeptide N-acetylgalactosaminyltransferase T2), secreted soluble enzyme (sT2), wild type (Homo sapiens, UniProt Q10471); assay: biochemical; settings: read-out: Concentration required for 50% inhibition (IC50), binding to GalNAc-MUC1 glycopeptide
human GalNAc-T2 (UDP-GalNAc:polypeptide N-acetylgalactosaminyltransferase T2), secreted soluble enzyme (sT2), wild type, sequence (Q10471 52-571 limits assumed): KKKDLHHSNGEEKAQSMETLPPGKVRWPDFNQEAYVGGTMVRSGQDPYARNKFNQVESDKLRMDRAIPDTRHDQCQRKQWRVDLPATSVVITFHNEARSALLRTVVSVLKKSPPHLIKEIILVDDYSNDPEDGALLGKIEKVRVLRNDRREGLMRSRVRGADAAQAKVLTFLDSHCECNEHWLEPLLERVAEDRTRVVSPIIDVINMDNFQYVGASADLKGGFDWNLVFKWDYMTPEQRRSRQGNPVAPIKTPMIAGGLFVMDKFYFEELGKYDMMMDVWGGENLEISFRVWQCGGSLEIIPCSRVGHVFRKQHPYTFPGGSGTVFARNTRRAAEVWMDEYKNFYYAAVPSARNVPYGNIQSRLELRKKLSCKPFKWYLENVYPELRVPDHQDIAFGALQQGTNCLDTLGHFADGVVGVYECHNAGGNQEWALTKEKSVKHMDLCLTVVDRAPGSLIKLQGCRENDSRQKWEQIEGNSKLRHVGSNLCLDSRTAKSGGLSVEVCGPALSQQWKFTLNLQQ
Procedure: (§1) The pH of 1 ml purified protein (0.3 mg/ml) in PBS was adjusted to pH 9 with 1 M NaOH and 40 μl N-hydroxy-succinimidobiotin (Sigma) dissolved in DMF (10 mg/ml) was added. The solution was mixed end-over-end for 2 hours at room temperature, and dialyzed three times against PBS and an equal volume of glycerol was added. The biotinylated proteins were stored at −20° C. in 50% glycerol until use.
(§2) Glycopeptides were purified by C-18 reverse phase HPLC. Peptides were custom synthesized by Neosystems (Strasbourg). Biotinylated Helix Pomatia lectin (HPA) was from KemEnTec (Denmark). Anti-MUC1 HMFG2 monoclonal antibody was a generous gift from Joyce Taylor-Papadimitriou.
(§3) Direct binding ELISA assay was developed as follows: Polystyrene microtiter plates (Maxisorb, Nunc, Denmark) were coated with peptides or enzymatically glycosylated glycopeptides in PBS overnight at 4° C. Plates were washed and blocked with 0.1% Tween20 and 0.2% BSA in PBS for 1 h at room temperature, followed by incubation with biotinylated proteins in PBS with 0.05% Tween20 for 2 h at room temperature. After four washes with PBS, plates were incubated with 1:2,000 dilution streptavidin-HRP (Sigma) in PBS for 30 min at room temperature and washed four times with PBS. […]

[4] = biological target: human GalNAc-T4 (UDP-GalNAc:polypeptide N-acetylgalactosaminyltransferase T4) isolated truncated lectin domain (T4ld), HIS-tagged, amino acid residues 405-578 o (Homo sapiens, UniProt Q8N4A0); assay: biochemical; assay type: binding; settings: read-out: Concentration required for 50% inhibition (IC50), binding to GalNAc-MUC1 glycopeptide
human GalNAc-T4 (UDP-GalNAc:polypeptide N-acetylgalactosaminyltransferase T4) isolated truncated lectin domain (T4ld), HIS-tagged, amino acid residues 405-578 o, sequence (Q8N4A0 405-578): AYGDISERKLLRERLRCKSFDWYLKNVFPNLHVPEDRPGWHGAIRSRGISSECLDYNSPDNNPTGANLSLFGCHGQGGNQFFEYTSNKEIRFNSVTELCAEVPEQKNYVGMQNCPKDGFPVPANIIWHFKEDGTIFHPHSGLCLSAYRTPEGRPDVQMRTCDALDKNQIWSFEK
From the text: (§4) In order to minimize the size and functional complexity of GalNAc-transferase lectins to be used as probes for binding studies, we used multiple sequence alignment analysis to predict and design suitable expression constructs for isolated lectin domains (FIG. 2). In the present invention a direct binding assay was developed using isolated lectin domains of GalNAc-T4 and -T2 with minimal size (FIG. 5). […] The lectin Helix Pomatia (HP) was used as a control plant lectin with known binding specificity for […].
(§5) Direct binding ELISA assay was developed as follows: Polystyrene microtiter plates (Maxisorb, Nunc, Denmark) were coated with peptides or enzymatically glycosylated glycopeptides in PBS overnight at 4° C. Plates were washed and blocked with 0.1% Tween20 and 0.2% BSA in PBS for 1 h at room temperature, followed by incubation with biotinylated proteins in PBS with 0.05% Tween20 for 2 h at room temperature. After four washes with PBS, plates were incubated with 1:2,000 dilution streptavidin-HRP (Sigma) in PBS for 30 min at room temperature and washed four times with PBS. Development was performed with 0.5 mg/ml o-phenylenediamine and 0.02% H2O2 at room temperature for 15 min, and reaction stopped by adding 100 μl/well of 0.5 N H2SO4. Competitive inhibition assays were done at end-point titers of GalNAc-transferase proteins with one hour preincubations with inhibitor.
(§6) In binding studies using lectins without biotinylation antibodies to the HIS-tag and the T7-tag, or in some experiments antibodies raised to GalNAc-T2 and -T4 enzymes were used to detect binding.
(§7) Inhibition experiments were used to further define the binding specificity of GalNAc-T2 and -T4 secreted soluble enzymes as well as lectin domains compared to Helix Pomatia lectin (Table IV).
(§8) The ligand target used in this Example is a GalNAc-MUC1 glycopeptide produced enzymatically from synthetic peptides.

[5] = biological target: human GalNAc-T4 (UDP-GalNAc:polypeptide N-acetylgalactosaminyltransferase T4), secreted soluble enzyme (sT4), wild type (Homo sapiens, UniProt Q8N4A0); settings: read-out: Concentration required for 50% inhibition (IC50), binding to GalNAc-MUC1 glycopeptide
human GalNAc-T4 (UDP-GalNAc:polypeptide N-acetylgalactosaminyltransferase T4), secreted soluble enzyme (sT4), wild type, sequence (Q8N4A0 36-578 limits assumed): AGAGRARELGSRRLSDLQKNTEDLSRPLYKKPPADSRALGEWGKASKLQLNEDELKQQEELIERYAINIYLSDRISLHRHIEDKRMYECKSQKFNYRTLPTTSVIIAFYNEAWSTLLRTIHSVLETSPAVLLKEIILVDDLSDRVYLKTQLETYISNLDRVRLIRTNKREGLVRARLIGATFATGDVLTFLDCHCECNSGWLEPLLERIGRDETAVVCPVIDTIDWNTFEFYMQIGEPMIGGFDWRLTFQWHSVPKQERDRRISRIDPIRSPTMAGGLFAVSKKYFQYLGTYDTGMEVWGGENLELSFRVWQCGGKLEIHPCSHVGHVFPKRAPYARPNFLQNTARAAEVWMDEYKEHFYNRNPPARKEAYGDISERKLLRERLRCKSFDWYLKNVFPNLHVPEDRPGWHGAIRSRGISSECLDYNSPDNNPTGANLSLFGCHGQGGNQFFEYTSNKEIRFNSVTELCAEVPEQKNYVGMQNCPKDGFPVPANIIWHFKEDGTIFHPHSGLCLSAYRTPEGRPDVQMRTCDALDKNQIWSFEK
Procedure: as §1, §2, §3

[6] = biological target: T1, secreted soluble GalNAc-T4 (Homo sapiens, UniProt Q8N4A0); assay: Inhibition of secreted soluble GalNAc-T4 (sT4) binding to GalNAc-MUC1 glycopeptide, ELISA
T1 construct: 6xHis (N); thrombin cleavage site (N); T7 antibody site (N); made in house; host or cells: baculovirus (pAcGP67A), High Five insect cells
T1 sequence (Q8N4A0 36-578 limits assumed): as above
Procedure: as §5, §7

[7] = biological target: T2, secreted soluble GalNAc-T2 (Homo sapiens, UniProt Q10471); assay: Inhibition of secreted soluble GalNAc-T2 (sT2) binding to GalNAc-MUC1 glycopeptide, ELISA
T2 construct: 6xHis (N); thrombin cleavage site (N); T7 antibody site (N); made in house; host or cells: baculovirus (pAcGP67A), High Five insect cells
T2 sequence (Q10471 52-571 limits assumed): as the sequence (Q10471 52-571 limits assumed) above
Procedure: as §5, §7

GalNAc-T4 lectin domain = biological target: T3, GalNAc-T4 lectin domain (Homo sapiens, UniProt Q8N4A0); assay: Inhibition of GalNAc-T4 lectin domain (T4ld) binding to GalNAc-MUC1 glycopeptide, ELISA
T3 construct: comprises amino acid residues 405-578 of GALNT4; made in house; host or cells: baculovirus (pAcGP67-A), virus made in Sf9, protein produced in High Five insect cells
T3 sequence (Q8N4A0 405-578): as the sequence (Q8N4A0 405-578) above
Procedure: as §5, §6, §7

GalNAc-T2 lectin domain = biological target: T4, GalNAc-T2 lectin domain (Homo sapiens, UniProt Q10471); assay: Inhibition of GalNAc-T2 lectin domain (T2ld) binding to GalNAc-MUC1 glycopeptide, ELISA
T4 construct: comprises amino acid residues 408-571 of GALNT2; made in house; host or cells: baculovirus (pAcGP67-A), virus made in Sf9, protein produced in High Five insect cells
T4 sequence (Q10471 408-571): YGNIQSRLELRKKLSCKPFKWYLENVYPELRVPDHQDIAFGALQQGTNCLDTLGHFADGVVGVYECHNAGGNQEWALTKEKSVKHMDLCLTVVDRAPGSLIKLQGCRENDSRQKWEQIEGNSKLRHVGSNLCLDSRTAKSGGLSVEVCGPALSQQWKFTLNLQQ
Procedure: as §5, §6, §7

[8] = system: GalNAc-T2 and -T4 secreted soluble enzymes as well as lectin domains; assay: Inhibition of GalNAc-transferase lectin binding to GalNAc-glycopeptides, statements on GalNAc-T2 and -T4 together; parameters: species or system human; settings: enzymes and isolated lectins
Procedure: as §5
Lectins and antibodies to carbohydrates usually recognize the anomeric configuration of the sugar structures they bind.
as §7

[9] = biological target: Helix Pomatia lectin (HPA) (Helix pomatia, UniProt Q2F1K8); assay: Inhibition of Helix Pomatia lectin (HPA) binding, ELISA
Helix Pomatia lectin (HPA), sequence (Q2F1K8 entry or part of it): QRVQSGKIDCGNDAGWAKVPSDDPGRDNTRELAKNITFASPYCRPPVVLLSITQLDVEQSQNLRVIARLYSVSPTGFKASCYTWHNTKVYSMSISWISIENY
Procedure: as §2, §5, §7

[10] = biological target: human GalNAc-T4 (UDP-GalNAc:polypeptide N-acetylgalactosaminyltransferase T4) isolated truncated lectin domain (T4ld), HIS-tagged, amino acid residues 405-578 of GALNT4 (Homo sapiens, UniProt Q8N4A0); assay: biochemical; assay type: binding; settings: binding to GalNAc-MUC1 glycopeptide
human GalNAc-T4 (UDP-GalNAc:polypeptide N-acetylgalactosaminyltransferase T4) isolated truncated lectin domain (T4ld), HIS-tagged, amino acid residues 405-578 of GALNT4, sequence (Q8N4A0 405-578): as the sequence (Q8N4A0 405-578) above
From the text: as §4, §5, §6, §7, §8

Structure (SMILES): CC(=O)N[C@H]1[C@H](OCc2ccccc2)O[C@H](CO)[C@@H](O)[C@@H]1O [BzlβGlcNAc]
O-linked mucin carbohydrate structures T, Tn and sialyl-Tn [1]: upregulated

Structure (SMILES): CC(=O)N[C@H]1[C@@H](OCc2ccccc2)O[C@H](CO)[C@H](O)[C@@H]1O[C@@H]1O[C@H](CO)[C@H](O)[C@H](O)[C@H]1O [Galβ1-3GalNAcα-benzyl]
substrate for ST3Gal-I [2]: efficient substrate

IC50 [3]: 5 mM
IC50 [4]: 5 mM
IC50 [5]: 1 mM
Structure (SMILES): CC(=O)N[C@H]1[C@@H](Oc2ccccc2)O[C@H](CO)[C@H](O)[C@@H]1O [PhlαGalNAc]

IC50 [6]: 30 mM
IC50 [7]: 65 mM
IC50 (GalNAc-T4 lectin domain): 50 mM
IC50 (GalNAc-T2 lectin domain): > 100 mM
inhibition of GalNAc-T2 and -T4 lectin mediated binding, in words [8]: not a significant inhibitor
inhibition of Helix Pomatia binding, in words [9]: strong inhibitor
Structure (SMILES): CC(=O)N[C@H]1[C@@H](OP(=O)(O)OP(=O)(O)OC[C@H]2O[C@@H](n3ccc(=O)[nH]c3=O)[C@H](O)[C@@H]2O)O[C@H](CO)[C@H](O)[C@@H]1O [UDPαGalNAc, UDP-N-acetylgalactosamine]

IC50 [10]: 8 mM
IC50 ([7]; read-out: sT2: Concentration required for 50% inhibition (IC50)): > 10 mM
IC50 (GalNAc-T2 lectin domain; read-out: T2ld: Concentration required for 50% inhibition (IC50)): > 10 mM
Structure (SMILES): CC(=O)N[C@H]1[C@H](Oc2ccc([N+](=O)[O-])cc2)O[C@H](CO)[C@H](O)[C@@H]1O [pNPβGalNAc]
